Data published in patent publication US20040146519A1, “Inducing cellular immune responses to carcinoembryonic antigen using peptide and nucleic acid compositions” (priority 2002, published 2004).
pIC50: −log10 of the molar value. Where no end group is shown, it is not given here.

What was measured:
HLA-A*1101 = HLA-A*1101 (Homo sapiens, UniProt P04439, A114D/D185E/E176A/F33Y/L180Q/S129P/T187R); experiment: HLA class I binding assay, purified HLA-A*1101; conditions: Table XXIII, binding affinity
HLA-A*3101 = HLA-A*3101 (Homo sapiens, UniProt P04439, A270S/D185E/E176V/E277Q/F33T/G231S/G80R/H175R/I121M/I218V/I322F/K168Q/L300P/L318F/M331R/P217A/Q94H/R138Q/T323A/T345S/T97I/V358M); experiment: HLA class I binding assay, purified HLA-A*3101; conditions: Table XXIII, binding affinity
HLA-A*3301 = HLA-A*3301 (Homo sapiens, UniProt P04439, A270S/D185E/E176V/E277Q/E87N/F33T/G231S/H175R/I121M/I218V/I322F/K168Q/K210R/L300P/L318F/M331R/P217A/Q86R/Q94H/R138Q/T323A/T345S/T97I/V358M/Y195H); experiment: HLA class I binding assay, purified HLA-A*3301; conditions: Table XXIII, binding affinity
HLA-A*6801 = HLA-A*6801 (Homo sapiens, UniProt P04439, A269V/D185E/E176V/E277Q/E87N/F33Y/G231S/I121M/I166T/I218V/L180W/L300P/L318F/N151K/P208A/P217A/Q86R/R169H/T345S); experiment: HLA class I binding assay, purified HLA-A*6801; conditions: Table XXIII, binding affinity
HLA-A*0202 = HLA-A*0202 (Homo sapiens, UniProt P04439, D140Y/D185E/D98H/E176V/E277Q/G131W/G231S/I119L/I121R/I166T/I218V/L180W/L300P/L318F/N151K/N90K/P208A/P217A/Q67R/Q86G/Q94H/R138H/R169H/T345S); experiment: HLA class I binding assay, purified HLA-A*0202; conditions: Table XXII, binding affinity
HLA-A*0206 = HLA-A*0206 (Homo sapiens, UniProt P04439, D140Y/D185E/D98H/E176V/E277Q/F33Y/G131W/G231S/I119V/I121R/I166T/I218V/L300P/L318F/N151K/N90K/P208A/P217A/Q86G/Q94H/R138H/R169H/T345S); experiment: HLA class I binding assay, purified HLA-A*0206; conditions: Table XXII, binding affinity
HLA-A*6802 = HLA-A*6802 (Homo sapiens, UniProt P04439, A269V/D140Y/D185E/E176V/E277Q/E87N/F33Y/G231S/I121R/I166T/I218V/L180W/L300P/L318F/N151K/P208A/P217A/Q86R/R138H/R169H/S129P/T345S/V36M); experiment: HLA class I binding assay, purified HLA-A*6802; conditions: Table XXII, binding affinity
HLA-A*0201 = HLA-A*0201 (Homo sapiens, UniProt P04439, D140Y/D185E/D98H/E176V/E277Q/G131W/G231S/I119V/I121R/I166T/I218V/L300P/L318F/N151K/N90K/P208A/P217A/Q86G/Q94H/R138H/R169H/T345S); experiment: HLA class I binding assay, purified HLA-A*0201; conditions: Table XXII, binding affinity
HLA-A*0203 = HLA-A*0203 (Homo sapiens, UniProt P04439, A173T/D140Y/D185E/D98H/E277Q/G131W/G231S/I119V/I121R/I166T/I218V/L180W/L300P/L318F/N151K/N90K/P208A/P217A/Q86G/Q94H/R138H/R169H/T345S); experiment: HLA class I binding assay, purified HLA-A*0203; conditions: Table XXII, binding affinity

| pIC50 (HLA-A*1101) | pIC50 (HLA-A*3101) | pIC50 (HLA-A*3301) | pIC50 (HLA-A*6801) | pIC50 (HLA-A*0202) | pIC50 (HLA-A*0206) | pIC50 (HLA-A*6802) | pIC50 (HLA-A*0201) | pIC50 (HLA-A*0203) | Molecule |
| --- | --- | --- | --- | --- | --- | --- | --- | --- | --- |
| 8.22 | < 5.00 | < 5.00 | 8.14 | – | – | – | – | – | TVSPLNTSYK [CEA.241.V2K10] |
| 7.37 | 5.43 | < 5.00 | 8.17 | – | – | – | – | – | CC(C)[C@H](NC(=O)[C@@H](N)[C@@H](C)O)C(=O)N[C@@H](CO)C(=O)N1CCC[C@H]1C(=O)N[C@@H](CO)C(=O)N[C@@H](Cc1ccc(O)cc1)C(=O)N[C@H](C(=O)N[C@@H](Cc1ccc(O)cc1)C(=O)N[C@@H](Cc1ccc(O)cc1)C(=O)N[C@@H](CCCCN)C(=O)O)[C@@H](C)O [CEA.419.V2K10] |
| – | – | – | – | 7.62 | 7.51 | 5.46 | – | – | CC[C@H](C)[C@H](NC(=O)CNC(=O)[C@H](CS)NC(=O)[C@H](CC(C)C)NC(=O)[C@@H](N)Cc1ccc(O)cc1)C(=O)N[C@@H](CCC(N)=O)C(=O)N[C@@H](CC(N)=O)C(=O)N[C@@H](CO)C(=O)N[C@H](C(=O)O)C(C)C [CEA.569L2] |
| – | 6.79 | < 5.00 | 5.24 | – | – | – | – | – | CC(C)C[C@H](NC(=O)[C@H](CC(C)C)NC(=O)[C@@H](NC(=O)[C@H](CC(C)C)NC(=O)[C@@H](NC(=O)[C@@H](N)CCCNC(=N)N)C(C)C)[C@@H](C)O)C(=O)N[C@@H](CO)C(=O)N[C@H](C(=O)N[C@H](C(=O)N[C@@H](CCCCN)C(=O)O)[C@@H](C)O)C(C)C [CEA.376.V2K10] |
| 6.68 | < 5.00 | < 5.00 | 8.28 | – | – | – | – | – | CC(C)C[C@H](NC(=O)[C@H](CC(N)=O)NC(=O)[C@H](CO)NC(=O)[C@@H](NC(=O)[C@@H](N)Cc1ccccc1)C(C)C)C(=O)N[C@@H](C)C(=O)N[C@H](C(=O)NCC(=O)N[C@@H](CCCCN)C(=O)O)[C@@H](C)O [CEA.656.K9] |
| – | – | – | – | 8.10 | – | 6.80 | 7.66 | 8.49 | CC[C@H](C)[C@H](N)C(=O)N[C@@H](CC(C)C)C(=O)N[C@H](C(=O)NCC(=O)N[C@H](C(=O)N[C@@H](CC(C)C)C(=O)N[C@H](C(=O)NCC(=O)N[C@H](C(=O)O)C(C)C)C(C)C)C(C)C)[C@@H](C)CC [CEA.691L2] |
| – | – | – | – | 7.20 | 7.00 | 6.99 | 8.00 | 7.51 | CC[C@H](C)[C@H](NC(=O)CNC(=O)[C@@H](NC(=O)[C@H](CC(C)C)NC(=O)[C@H](C)N)C(C)C)C(=O)N[C@@H](CCSC)C(=O)N[C@H](C(=O)NCC(=O)N[C@H](C(=O)O)C(C)C)[C@@H](C)CC [CEA.687L2] |
| – | 6.14 | 5.36 | 7.66 | – | – | – | – | – | CC[C@H](C)[C@H](N)C(=O)N[C@H](C(=O)N1CCC[C@H]1C(=O)N[C@@H](CO)C(=O)N[C@@H](Cc1ccc(O)cc1)C(=O)N[C@H](C(=O)N[C@@H](Cc1ccc(O)cc1)C(=O)N[C@@H](Cc1ccc(O)cc1)C(=O)N[C@@H](CCCCN)C(=O)O)[C@@H](C)O)C(C)C [CEA.420.V2K9] |
| – | – | – | – | 6.69 | 6.85 | 6.30 | 7.19 | 7.51 | CC[C@H](C)[C@H](NC(=O)CN)C(=O)N[C@@H](CCSC)C(=O)N[C@H](C(=O)NCC(=O)N[C@H](C(=O)N[C@@H](CC(C)C)C(=O)N[C@H](C(=O)NCC(=O)N[C@H](C(=O)O)C(C)C)C(C)C)C(C)C)[C@@H](C)CC [CEA.690] |
| 7.49 | 6.63 | < 5.00 | 5.63 | – | – | – | – | – | CC(C)C[C@H](NC(=O)[C@@H](NC(=O)[C@@H](N)CCCNC(=N)N)C(C)C)C(=O)N[C@H](C(=O)N[C@@H](CC(C)C)C(=O)N[C@@H](Cc1ccccc1)C(=O)N[C@@H](CC(N)=O)C(=O)N[C@H](C(=O)N[C@H](C(=O)N[C@@H](CCCCN)C(=O)O)[C@@H](C)O)C(C)C)[C@@H](C)O [CEA.554.V42K10] |
| – | – | – | – | 8.23 | – | 8.64 | – | 8.64 | CC[C@H](C)[C@H](NC(=O)[C@H](CC(C)C)NC(=O)[C@@H](N)CCC(N)=O)C(=O)NCC(=O)N[C@@H](Cc1ccc(O)cc1)C(=O)N[C@H](C(=O)N[C@H](C(=O)NCC(=O)N[C@H](C(=O)O)C(C)C)[C@@H](C)CC)C(C)C [CEA.78L2V9] |
